PMC3158843 (ACS chemical biology, 2011)
No end group written: not given here.

Experiments:
JNK = details: cited from earlier work
JNK3α1 [1] = biological target: T1, JNK3α1 (Homo sapiens, UniProt P53779)
[2] = biological target: JNK1α1 (active, recombinant) (human) (UniProt P45983)
JNK3α1 [3] = biological target: T1, JNK3α1; test: Fluorescence polarization assay for peptide binding
JNK3α1 [4] = biological target: T1, JNK3α1; test: Kinase-Glo phosphorylation assay, JNK3α1; format: biochemical; details: 4-parameter nonlinear regression, 30°C, 60 min
[5] = system: recombinant JNK1α1 / mitochondria of JNK-null fibroblasts; design: species or system murine; details: TI-JIP 1µM, Tat-SabKIM1 10µM
[6] = system: JNK on mitochondria of HeLa cells; format: cell-based
HeLa cells [7] = test: Mitochondrial membrane potential, JC-1; format: cell-based
HeLa cells [8] = test: Cytochrome c release, ELISA; format: cell-based; details: 25µM anisomycin 4 hours; Tat-SabKIM1 10µM, TI-JIP 1µM, siRNA 50nM
[9] = system: c-jun phosphorylation in HeLa cells; test: c-jun phosphorylation in anisomycin-treated HeLa cells, Western blot; format: cell-based; details: 25µM anisomycin, 0-120 min
[10] = system: JNK phosphorylation in HeLa cells; test: JNK phosphorylation in anisomycin-treated HeLa cells, Western blot; format: cell-based; details: 25µM anisomycin
HeLa cells [11] = details: 25µM anisomycin, 4 hours
[12] = system: JNK on mitochondria of HeLa cells; details: N-acetylcysteine; earlier data, ref "Recent data from our lab"; cited from earlier work

**Q.** For “Sab KIM1 peptide: Sab KIM1 motif examined earlier as an inhibitor of JNK mediated c-jun phosphorylation (GFESLSVPSPLDLSGPRVVAPPRRRQRRKKRG; not fully specified; retro-inverso configuration; C-terminal amide (-NH2))”, which “impact on c-jun phosphorylation” value (JNK; ref [18]) is on record?
**A.** did not impact c-jun phosphorylation

**Q.** For Tat-TI-JIP (peptide), which IC50 of inhibition of JNK3α1 phosphorylation of ATF2 (Kinase-Glo assay) (JNK3α1 [1]) is on record?
**A.** 27 nM

**Q.** What about the IC50 of inhibition of JNK3α1 phosphorylation of Sab protein (Kinase-Glo assay) (JNK3α1 [1]) of the same molecule?
**A.** 18 nM

**Q.** What about the IC50 of inhibition of JNK3α1 phosphorylation of c-jun (Kinase-Glo assay) (JNK3α1 [1]) of the same molecule?
**A.** 38 nM

**Q.** And the IC50 of inhibition of JNK1α1 phosphorylation of c-jun (1–79) (Kinase-Glo assay) [2]?
**A.** 34 nM

**Q.** For AVVRPGSLDLR [Sab KIM1 motif], which “inhibition of JNK phosphorylation of c-jun / transcription factors” value (JNK; ref [15]) is on record?
**A.** little, if any impact

**Q.** Which results are given for YGRKKRRQRRRRPKRPTTLNLF-NH2 [Tat-TI-JIP]?
**A.** Kd (JNK3α1 [3]): 450 ± 60 nM; affinity of JNK3α1 compared to the Sab peptide (JNK3α1 [3]; greater affinity for JIP peptide vs Sab peptide, fluorescence polarization): 25 -fold; IC50 (JNK3α1 [4]; IC50 -vs-Sab, JNK3α1, substrate Sab): 18 ± 9 nM; IC50 (JNK3α1 [4]; IC50 -vs-c-jun, JNK3α1, substrate c-jun): 38 ± 12 nM; levels of Sab on isolated mitochondria [5]: did not alter the levels of Sab; Sab expression on mitochondria of HeLa cells with peptide ([6]; 25µM anisomycin 30 min, TI-JIP 1µM, Tat-SabKIM1 10µM): without impacting Sab expression; mitochondrial membrane potential (MMP) dissipation (HeLa cells [7]; JC-1, 25µM anisomycin 45 min, Tat-SabKIM1 10µM, TI-JIP 1µM, siRNA 50nM): decreased the amount of mitochondria with dissipating MMP; cytochrome c release from the mitochondria (HeLa cells [8]): capable of reducing cytochrome c release; Ki (JNK; read-out: Ki, inhibition of JNK activity versus ATF-2, ref [19], [20]): 25 nM; inhibition of JNK catalytic activity with respect to substrate binding (JNK; ref [19]–[21]): potent inhibitor

**Q.** Which “phospho-JNK on the mitochondria” value ([6]; 25µM anisomycin) does the source give for `COc1ccc(C[C@H]2NC[C@H](O)[C@H]2OC(C)=O)cc1` [anisomycin] here?
**A.** as early as 5 minutes and peaked at 30 minutes

**Q.** What about the “Sab abundance on the mitochondria” value ([6]; 25µM anisomycin stress) of the same molecule?
**A.** did not have altered abundance

**Q.** And the “JNK species found on the mitochondria” value ([6]; 25µM anisomycin, Western blot)?
**A.** only the 54kDa species was found on the mitochondria

**Q.** What about the “c-jun levels” value [9] of the same molecule?
**A.** remained constant

**Q.** And the “c-jun phosphorylation on serine 73” value [9]?
**A.** increased at 15–30 minutes, peaking at 45–60 min, then decreasing following 60 minutes

**Q.** And the “increase in percent depolarized mitochondria” value (HeLa cells [7]; 25µM anisomycin, 45 min, vs DMSO-treated cells)?
**A.** 40–50%

**Q.** What about the “JNK phosphorylation” value ([10]; 0-120 min) of the same molecule?
**A.** increased JNK phosphorylation between 15 and 30 minutes, and then JNK phosphorylation decreased after 30 minutes

**Q.** And the “total JNK abundance” value ([10]; two hour time course)?
**A.** unchanged

**Q.** What about the cell death (HeLa cells [11]) of the same molecule?
**A.** 50%

**Q.** And the decrease in viability (HeLa cells [11]; vs DMSO-treated cells)?
**A.** ~ 50%

**Q.** With `CC(=O)N[C@@H](CS)C(=O)O` [N-acetylcysteine] as the molecule, how does the “JNK translocation to the mitochondria” value [12] read?
**A.** inhibits JNK translocation to the mitochondria
